# From patent US12453725B2, “Treatment of inflammatory disease” (Celleron Therapeutics Limited, priority 2019, dated 2025)
# Tests used:
# [1] = test system: SW620 human colon adenocarcinoma cells; test: MTT assay, SW620 cells; assay type: cell-based
# Experimental: Three human colorectal adenocarcinoma cell lines: SW620 (ATCC® CCL-227™), HCT-15 (ATCC® CCL-225™), LoVo (ATCC® CCL-229™), and one mouse colon carcinoma cell line: CT26 (ATCC® CRL-2638™) were obtained from ATCC. Human cell lines were cultured in DMEM (Lonza Group, Switzerland), while CT26 in RPMI (Biowest, France). The media were supplemented with 10% FBS and 1% penicillin-streptomycin (Lonza Group, Switzerland). Cells were cultured under standard conditions.
# In order to assess the cytotoxicity of CXD101, cells were seeded onto 96-well plates overnight and the next day were dosed with CXD101 and incubated for 72 h or 120 h. Next, 100 μl of Thiazolyl Blue Tetrazolium Bromide (MTT, Sigma-Aldrich, USA) was added into a well (final concentration […]) and incubated for 2 h at 37° C. After that medium was discarded and formazan crystals were dissolved in 100 μl DMSO (VWR International, USA) by shaking for 15 minutes. Absorbance was read by Omega FLUOstar plate reader (BMG Labtech Ltd, Germany) at the 584 nm wavelength. Data were analysed and IC50 doses calculated in GraphPad Prism (GraphPad Software, USA).
# [2] = test system: SW620 cells; test: qPCR of single genes, SW620 cells; assay type: cell-based, human
# Experimental: Total RNA purified from DMSO- or CXD101 treated cells was transcribed into cDNA according to the manufacturer's instructions (iScript cDNA Synthesis Kit, Bio-Rad, USA). qPCR was conducted according to the manufacturer's protocol (SsoAdvanced Universal SYBR Green Supermix, Bio-Rad Laboratories, USA) on CFX Connect Real-Time System thermocycler (Bio-Rad Laboratories, USA).
# [3] = test system: colon26 cells; test: RNAseq, colon26 cells in vitro; assay type: cell-based, mouse
# Text: The RNAseq data was aligned to the reference M. musculus genome (mm10) with STAR aligner and analysed for differential expression. […] We further evaluated transcripts identified in the colon26 RNAseq at the single gene level, focusing on murine genes which are homologues of the immune-related genes identified in human SW620 cells, which included genes in the murine MHC H2 complex. A number of H2 genes including class I and class II genes were induced including H2-D1, DMA, DMB1 and EB1 (FIG. 6).
# SW620 cells were seeded into 6-well plates and left to adhere overnight. Cells were treated with 1 μM, 10 μM of CXD101 for 48 h. CT26 cells were seeded onto 100 mm plates and treated with 2.7 μM and 10 μM CXD101 for 72 h. After treatment cells were harvested and total RNA extracted by means of Promega ReliaPrep™ RNA Cell Miniprep System (Promega, USA). RNA was dissolved in RNAse free water and stored in −80° C. for future analysis. RNA concentration was measured by NanoDrop 2000 (Thermo Fisher Scientific, USA). Samples were qualified for library preparation if […]. Library preparation with poly (A) enrichment was performed by BGI.
# [4] = test system: colon26 tumours; test: Immunohistochemistry of colon26 tumour sections; assay type: in vivo, Balb/c mice
# Experimental: Tumours were harvested, embedded in paraffin blocks and cut into 5 μm sections. Antigen retrieval was achieved by incubating in sodium citrate. Sections were incubated with primary antibodies: anti-H3Ack9 (ab10812, abcam), anti-CD8 (ab203035, abcam), anti-CD4 (ab183685, abcam), anti-CD68 (GR300628, abcam), anti-CD163 (GR3232711, abcam and, anti-FoxP3 (14208S, New England Biolabs) and further stained with anti-rabbit secondary antibody (VECTASTAIN Elite ABC HRP Kit, Vector Laboratories Inc, USA) according to the manufacturer protocol. Signal was detected by DAB (3, 3-diaminobenzidine, Vector Laboratories Inc, USA) and sections were counterstained with haematoxylin (Hematoxylin solution Mayer's; pH 2.4, Merck Group, Germany). Pictures were taken using Leica DM2500 optical microscope (Leica Microsystems, Germany) and the signal was semi-quantified by means of ImageJ Fiji software (National Institutes of Health, USA, doi:10.1038/nmeth.2019).
# [5] = test system: MC38 tumours; test: Syngeneic MC38 tumour model; design: species or system C57BL/6 mice; settings: mouse, in vivo
# Text: Syngeneic colorectal tumour xenograft Colon 26 model was induced in female BALB/c mice and MC38 model in C57BL/6 mice by subcutaneous injection of cell suspension into the flank following the anaesthetization by inhalation of isoflurane. Upon solid tumour formation Colon 26 animals were divided into six experimental groups treated respectively with: vehicle control (control), CXD101, anti-PD-1 mAb (BioXCell, USA), anti-CTLA4 mAb (BioXCell, USA), combination of CXD101 with anti-PD-1 antibody and combination of CXD101 with anti-CTLA4 antibody. MC38 animals were divided into four groups, without CTLA-4-based treatment. During the course of experiment animals were monitored twice daily and weighed three times a week. Mice in bad overall condition and/or tumour volume exceeding 1000 mm3 were euthanized. Tumour volume was calculated by two-dimensional measurement according to the formula: Tumour volume=(a×b^2)×0.5 in which a—represents the largest and, b—the perpendicular tumour diameter. The study was terminated on 36th day (Colon 26) or 48th day (MC38). All Colon 26 animal handling has been executed by Charles River Laboratories (Germany) personnel with compliance to all local and international laws and regulations. Experiments involving MC38 tumour model have been executed by Crown Bioscience San Diego (USA). CXD101 Clinical Trial in Combination with Nivolumab (CTL-101-023)
# [6] = test system: A20 tumours; test: Syngeneic A20 B cell lymphoma model; assay type: in vivo, mouse; settings: CXD101 50 mg/kg
# Text: In order to rule out that the effects of the combined therapy were specific to the colon26 and MC38 colorectal cancer model, we widened the study to the syngeneic A20 B cell lymphoma model (FIG. 10). A20 tumours are reported to express high levels of PD-L1 and are responsive to immunomodulatory antibodies (32).
# [7] = colon26 in vitro, log 2 FC >1, FDR 1%
# [8] = out of 1142 differentially expressed genes
# [9] = relative to untreated control animals
smiles,measurement,setting,value
"Cc1nn(C)cc1CN1CCC(c2ccc(C(=O)Nc3ccccc3N)cc2)CC1 [CXD101, N-(2-aminophenyl)-4-(1-[(1,3-dimethyl-1H-pyrazol-4-yl)methyl]piperidin-4-yl)benzamide]",proliferation of human colon cancer cells,[1],blocks proliferation
same,"expression of HLA-B, HLA-F, HLA-DPA1, HLA-DQB1, CTLA4, CDKN1A, TIMP3",[2],increases expression
same,"expression of PHGDH, BCL2L15",[2],decreases
same,expression of REPIN1,[2],no effect
same,number of DEGs in vitro,[3]; colon26 cells,2502
same,genes down-regulated,[3]; [7],611
same,genes up-regulated,[3]; [7],1891
same,"immune-related DEGs, Immunome database",[3]; [8],15%
same,"immune-related DEGs, Import database",[3]; [8],34%
same,"immune-related DEGs, immunogenicity database",[3]; [8],36%
same,CD68 macrophages,[4]; compared to untreated animals,reduced
same,CD163 macrophages,[4]; compared to untreated animals,reduced
same,change in Tregs (FoxP3),"[4]; mouse, in vivo",quite modest
same,level of CD4 lymphocytes in tumour,[4]; [9],significant increase
same,level of CD8 lymphocytes in tumour,[4]; [9],significant increase
same,nuclear H3K9 acetylation,[4]; treated vs untreated animals,increased levels
same,MC38 tumour response,[5],marginal response
same,A20 tumour progression,[6],modest effect
